Test results from the NIST ThermoML archive (doi:10.1021/je1011136).
± gives the expanded uncertainty stated by the source.

What was measured:
[1] = Molar enthalpy of transition or fusion; conditions: Crystal; DSC
[2] = Crystal; DTA

For `COc1cc(CNC(=O)CCCCCCC(C)C)ccc1O` [N-(4-hydroxy-3-methoxybenzyl)-8-methylnonanamide], which “Molar enthalpy of transition or fusion” value [1] is on record?
Its value is 4.54 ± 0.136 kcal/mol.

And the Normal melting temperature [2]?
Its Normal melting temperature is 59.4 ± 1.1 °C.
